Test results published in patent US20210221866A1, “PROTEASE-RESISTANT LIPIDATED GLP-1 ANALOGS” (MEDIMMUNE LIMITED, priority 2015, published 2021).
Read-outs that look alike come from different tables or passages of the source. Numbered stars: 1 amine (or outer) side, 2 acyl side, 3 side chain; on linkers, the order of the positions; unused ones are H or OH. Square brackets hold non-standard residues; d marks the D form. Side chains are listed from the residue outwards. Peptide text beside a SMILES is read from it. * marks the point of attachment. C18 diacid = O=C(O)CCCCCCCCCCCCCCCCC(=O)*; γGlu = O=C(O)[C@H](CCC(=O)[*:2])N[*:1]; αMeF = C[C@](N)(Cc1ccccc1)C(=O)O; αMeK = C[C@](N)(CCCCN)C(=O)O; Lauroyl = CCCCCCCCCCCC(=O)*; αMeS = C[C@](N)(CO)C(=O)O; AEEA = NCCOCCOCC(=O)O; Aib = CC(C)(N)C(=O)O

What was measured:
Assay type in all cases: cell-based
[1] = molecular target: T1, human glucose-dependent insulinotropic peptide receptor (GIPR) (Homo sapiens, UniProt P48546); experiment: cAMP assay, human GIPR cells
T1 construct: expressed in transfected cells; host or cells: HEK293 cells or CHO cells
T1 sequence (P48546 22-466): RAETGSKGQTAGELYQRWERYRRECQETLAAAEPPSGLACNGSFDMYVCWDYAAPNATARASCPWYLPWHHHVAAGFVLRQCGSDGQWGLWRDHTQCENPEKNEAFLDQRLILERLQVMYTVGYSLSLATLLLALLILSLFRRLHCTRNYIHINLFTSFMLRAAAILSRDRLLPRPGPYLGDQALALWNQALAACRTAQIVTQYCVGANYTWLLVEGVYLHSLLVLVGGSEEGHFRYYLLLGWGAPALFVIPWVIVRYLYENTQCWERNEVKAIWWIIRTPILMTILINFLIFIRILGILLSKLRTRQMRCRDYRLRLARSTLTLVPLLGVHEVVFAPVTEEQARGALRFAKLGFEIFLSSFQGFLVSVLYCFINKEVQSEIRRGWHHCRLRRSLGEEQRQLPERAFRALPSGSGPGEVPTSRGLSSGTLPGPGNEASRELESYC
In short: (§1)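 Peptide-stimulated cAMP measured by two-step HTRF after a 30 min room-temperature incubation with receptor-expressing cells (hGLP-1R, hGIPR at 1×10^5 cells/ml; hGCGR at 2×10^5 cells/ml). Duplicate dilutions; EC50 from 4-parameter logistic fit of % Delta F.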

[2] = molecular target: T2, human glucagon receptor (GCGR) (Homo sapiens, UniProt P47871); experiment: cAMP assay, human GCGR cells
T2 construct: expressed in transfected cells; host or cells: HEK293 cells or CHO cells
In short: as §1

[3] = molecular target: T3, human GLP-1 receptor (GLP-1R) (Homo sapiens, UniProt P43220); experiment: cAMP assay, human GLP-1R cells
T3 construct: expressed in transfected cells; host or cells: HEK293 cells or CHO cells
In short: as §1

GLP-1R (INS1e cells) = molecular target: T4, GLP-1R (INS1e cells) (Rattus norvegicus, UniProt P32301); experiment: INS1e assay, cAMP activity at GLP-1R
T4 construct: endogenous in cells; host or cells: INS1e cells
T4 sequence (P32301 22-463): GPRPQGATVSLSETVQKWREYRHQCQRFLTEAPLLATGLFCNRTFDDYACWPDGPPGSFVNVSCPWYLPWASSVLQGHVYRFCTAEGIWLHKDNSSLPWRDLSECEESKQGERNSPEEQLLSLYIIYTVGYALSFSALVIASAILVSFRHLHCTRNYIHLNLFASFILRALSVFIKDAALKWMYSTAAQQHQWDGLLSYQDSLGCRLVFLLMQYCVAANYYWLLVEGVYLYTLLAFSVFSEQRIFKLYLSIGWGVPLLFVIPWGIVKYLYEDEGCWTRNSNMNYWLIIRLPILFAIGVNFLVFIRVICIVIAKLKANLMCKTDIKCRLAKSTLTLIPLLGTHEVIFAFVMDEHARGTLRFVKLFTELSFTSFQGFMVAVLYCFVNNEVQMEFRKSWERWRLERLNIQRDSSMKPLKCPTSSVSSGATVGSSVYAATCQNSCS

[4] = Table 8, substituted and mono-lipidated peptides, mean of n1 and n2, read-out: INS1e assay EC50 Mean pM GLP-1R
[5] = Table 8, substituted and mono-lipidated peptides, replicate n1, read-out: INS1e assay EC50 GLP-1R n1
[6] = Table 8, substituted and mono-lipidated peptides, replicate n2, read-out: INS1e assay EC50 GLP-1R n2

T3 sequence (P43220 24-463): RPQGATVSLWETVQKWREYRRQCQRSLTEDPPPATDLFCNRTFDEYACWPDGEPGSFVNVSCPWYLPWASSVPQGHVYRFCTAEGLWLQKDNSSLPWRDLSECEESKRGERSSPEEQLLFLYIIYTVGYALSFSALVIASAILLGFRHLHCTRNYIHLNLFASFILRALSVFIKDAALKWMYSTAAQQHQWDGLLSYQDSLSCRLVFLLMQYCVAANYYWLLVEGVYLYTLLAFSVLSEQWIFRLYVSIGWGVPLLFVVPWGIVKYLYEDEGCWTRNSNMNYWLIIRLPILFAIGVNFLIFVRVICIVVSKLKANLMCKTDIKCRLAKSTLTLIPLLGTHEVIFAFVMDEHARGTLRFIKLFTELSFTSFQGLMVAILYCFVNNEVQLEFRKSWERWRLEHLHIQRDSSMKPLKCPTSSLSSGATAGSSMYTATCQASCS
T2 sequence (P47871 26-477): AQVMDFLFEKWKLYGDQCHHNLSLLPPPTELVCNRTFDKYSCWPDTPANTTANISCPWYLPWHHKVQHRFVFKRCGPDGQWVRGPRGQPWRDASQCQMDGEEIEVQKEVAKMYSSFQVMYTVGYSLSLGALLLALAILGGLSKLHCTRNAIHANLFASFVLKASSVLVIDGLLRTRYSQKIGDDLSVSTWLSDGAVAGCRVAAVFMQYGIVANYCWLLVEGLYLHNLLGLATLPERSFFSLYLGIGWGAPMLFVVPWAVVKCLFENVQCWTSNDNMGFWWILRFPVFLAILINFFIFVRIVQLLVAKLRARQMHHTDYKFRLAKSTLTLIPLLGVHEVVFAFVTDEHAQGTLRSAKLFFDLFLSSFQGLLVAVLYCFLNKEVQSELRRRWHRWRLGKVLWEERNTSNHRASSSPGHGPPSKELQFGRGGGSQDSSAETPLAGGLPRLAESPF

For `CC[C@H](C)[C@H](NC(=O)[C@](C)(Cc1ccccc1)NC(=O)[C@H](CCC(=O)O)NC(=O)[C@](C)(CCCCN)NC(=O)[C@H](C)NC(=O)[C@H](C)NC(=O)[C@H](CCC(=O)O)NC(=O)CNC(=O)[C@H](CCC(=O)O)NC(=O)[C@H](CC(C)C)NC(=O)[C@](C)(Cc1ccccc1)NC(=O)[C@H](CO)NC(=O)[C@](C)(CO)NC(=O)[C@@H](NC(=O)[C@H](CC(=O)O)NC(=O)[C@H](CO)NC(=O)[C@@H](NC(=O)[C@](C)(Cc1ccccc1)NC(=O)[C@H](CO)NC(=O)CNC(=O)[C@H](CCC(=O)O)NC(=O)C(C)(C)NC(=O)[C@@H](N)Cc1c[nH]cn1)[C@@H](C)O)C(C)C)C(=O)N[C@@H](C)C(=O)N[C@@](C)(Cc1ccccc1)C(=O)N[C@H](C(=O)N[C@H](C(=O)N[C@@](C)(CCCCN)C(=O)NCC(=O)N[C@@H](CCCCNC(=O)COCCOCCNC(=O)COCCOCCNC(=O)CC[C@H](NC(=O)CCCCCCCCCCCCCCCCC(=O)O)C(=O)O)C(N)=O)C(C)C)C(C)C` [compound 99] (H-H[Aib]EGS[αMeF]TSDV[αMeS]S[αMeF]LEGEAA[αMeK]E[αMeF]IA[αMeF]VV[αMeK]GK([AEEA-AEEA-γGlu-C18 diacid])-NH2; N-terminus assumed), which EC50 ([1]; cAMP activity, first determination (n1), read-out: Primary assay EC50 GIP-R) is on record?
The EC50 was at least 25 nM.

What about the EC50 ([1]; cAMP activity, second determination (n2), read-out: Primary assay EC50 GIP-R) of the same compound?
Its EC50 is at least 24.9 nM.

What about the EC50 ([2]; cAMP activity, second determination (n2), read-out: Primary assay EC50 Gluc-R) of the same compound?
The EC50 was at least 24.9 nM.

And the EC50 ([3]; cAMP activity, first determination (n1), read-out: Primary assay EC50 GLP-1R n1)?
The EC50 was 58 pM.

And the EC50 ([3]; cAMP activity, mean of n1 and n2, read-out: Mean pM GLP-1R)?
Its EC50 is 54 pM.

And the EC50 ([3]; cAMP activity, second determination (n2), read-out: Primary assay EC50 GLP-1R n2)?
Its EC50 is 49.3 pM.

What about the EC50 (GLP-1R (INS1e cells); [4]) of the same compound?
The EC50 was 8440 pM.

What about the EC50 (GLP-1R (INS1e cells); [5]) of the same compound?
The EC50 was 11000 pM.

And the EC50 (GLP-1R (INS1e cells); [6])?
The EC50 was 5880 pM.

Which EC50 ([1]; first replicate, read-out: Primary assay EC50 GIP-R) does the source give for `CC[C@H](C)[C@H](NC(=O)[C@](C)(Cc1ccccc1)NC(=O)[C@H](CCC(=O)O)NC(=O)[C@](C)(CCCCN)NC(=O)[C@H](C)NC(=O)[C@H](C)NC(=O)[C@H](CCC(=O)O)NC(=O)CNC(=O)[C@H](CCC(=O)O)NC(=O)[C@H](CC(C)C)NC(=O)[C@](C)(Cc1ccccc1)NC(=O)[C@H](CO)NC(=O)[C@](C)(CO)NC(=O)[C@@H](NC(=O)[C@H](CC(=O)O)NC(=O)[C@H](CO)NC(=O)[C@@H](NC(=O)[C@](C)(Cc1ccccc1)NC(=O)[C@H](CO)NC(=O)CNC(=O)[C@H](CCC(=O)O)NC(=O)C(C)(C)NC(=O)[C@@H](N)Cc1c[nH]cn1)[C@@H](C)O)C(C)C)C(=O)N[C@@H](C)C(=O)N[C@@](C)(Cc1ccccc1)C(=O)N[C@H](C(=O)N[C@H](C(=O)N[C@@H](CCCCNC(=O)COCCOCCNC(=O)COCCOCCNC(=O)COCCOCCNC(=O)CCCCCCCCCCCCCCCCC(=O)O)C(=O)NCC(=O)NCC(N)=O)C(C)C)C(C)C` [compound 199] here?
The EC50 was at least 25 nM.

And the EC50 ([1]; second replicate (n2), read-out: Primary assay EC50 GIP-R)?
Its EC50 is at least 25 nM.

And the EC50 ([2]; second replicate (n2), read-out: Primary assay EC50 Gluc-R)?
Its EC50 is at least 25 nM.

And the EC50 ([3]; mean of n1 and n2, read-out: Mean pM GLP-1R)?
The EC50 was 18.3 pM.

And the EC50 ([3]; replicate n1, read-out: Primary assay EC50 GLP-1R n1)?
The EC50 was 29 pM.

What about the EC50 ([3]; replicate n2, read-out: Primary assay EC50 GLP-1R n2) of the same compound?
The EC50 was 7.5 pM.

And the EC50 (GLP-1R (INS1e cells); [4])?
The EC50 was 1460 pM.

And the EC50 (GLP-1R (INS1e cells); [5])?
Its EC50 is 787 pM.

And the EC50 (GLP-1R (INS1e cells); [6])?
Its EC50 is 2130 pM.

What does the source list for `CCCCCCCCCCCC(=O)N[C@@H](CCC(=O)NCCOCCOCC(=O)NCCOCCOCC(=O)NCCCC[C@H](NC(=O)[C@H](Cc1ccc(O)cc1)NC(=O)[C@H](CO)NC(=O)[C@](C)(CO)NC(=O)[C@@H](NC(=O)[C@H](CC(=O)O)NC(=O)[C@H](CO)NC(=O)[C@@H](NC(=O)[C@](C)(Cc1ccccc1)NC(=O)[C@H](CO)NC(=O)CNC(=O)[C@H](CCC(=O)O)NC(=O)C(C)(C)NC(=O)[C@@H](N)Cc1c[nH]cn1)[C@@H](C)O)C(C)C)C(=O)N[C@@H](CCC(=O)O)C(=O)NCC(=O)N[C@@H](CCC(=O)O)C(=O)N[C@@H](C)C(=O)N[C@@H](C)C(=O)N[C@@](C)(CCCCN)C(=O)N[C@@H](CCC(=O)O)C(=O)N[C@@H](Cc1ccccc1)C(=O)N[C@H](C(=O)N[C@@H](CCCCNC(=O)COCCOCCNC(=O)COCCOCCNC(=O)CC[C@H](NC(=O)CCCCCCCCCCC)C(=O)O)C(=O)N[C@@H](Cc1c[nH]c2ccccc12)C(=O)N[C@H](C(=O)N[C@H](C(=O)N[C@@H](CCC(=O)O)C(=O)NCC(=O)NCC(N)=O)C(C)C)C(C)C)[C@@H](C)CC)C(=O)O` [compound 268] (H-H[Aib]EGS[αMeF]TSDV[αMeS]SYK([AEEA-AEEA-γGlu-Lauroyl])EGEAA[αMeK]EFIK([AEEA-AEEA-γGlu-Lauroyl])WVVEGG-NH2; N-terminus assumed)?
EC50 ([1]; Table 9, bis-lipidated peptides, first replicate, read-out: Primary assay EC50 GIP-R (n1)): ≥ 22.2 nM; EC50 ([1]; Table 9, bis-lipidated peptides, second replicate, read-out: Primary assay EC50 GIP-R (n2)): ≥ 22.2 nM; EC50 ([2]; Table 9, bis-lipidated peptides, first replicate, read-out: Primary assay EC50 Gluc-R (n1)): ≥ 22.2 nM; EC50 ([2]; Table 9, bis-lipidated peptides, second replicate, read-out: Primary assay EC50 Gluc-R (n2)): ≥ 22.2 nM; EC50 ([3]; Table 9, bis-lipidated peptides, mean of n1 and n2, read-out: Primary assay EC50 Mean pM GLP-1R): 4.8 pM; EC50 ([3]; Table 9, bis-lipidated peptides, replicate n1, read-out: Primary assay EC50 GLP-1R n1): 4.46 pM; EC50 ([3]; Table 9, bis-lipidated peptides, replicate n2, read-out: Primary assay EC50 GLP-1R n2): 5.05 pM; EC50 (GLP-1R (INS1e cells); Table 10, bis-lipidated peptides, mean of n1 and n2, read-out: INS1e assay EC50 Mean pM GLP-1R): 1160 pM; EC50 (GLP-1R (INS1e cells); Table 10, bis-lipidated peptides, replicate n1, read-out: INS1e assay EC50 GLP-1R n1): 1090 pM; EC50 (GLP-1R (INS1e cells); Table 10, bis-lipidated peptides, replicate n2, read-out: INS1e assay EC50 GLP-1R n2): 1230 pM
